Measured values from PubChem BioAssay AID493119 (Broad Institute, 2011).
Where “and” joins values, the source holds several entries; their conditions need not be identical. Equal values may be shown once.

What follows are compounds tested on V. harveyi MM32 (LuxS-), AI-2-induced luminescence, 5 h (assay: AI-2 driven bioluminescence decrease, LuxPQ pathway – strain MM32 LuxS-null, luminescence, dry powder, set 2, mechanism study for V. harveyi quorum sensing inhibitors, dose response (AID 493119)).
With `Cc1cccc(NS(=O)(=O)c2ccc(Oc3ccccc3)cc2)n1` the AC50 was 1.29 µM and 1.61 µM. For `C=Cn1c(C(=O)O)ccc1-c1ccc(CC)cc1`, the AC50 was 1.72 µM and 1.57 µM. `O=C1C=C/C(=C/Br)O1` gave an AC50 of 3.97 µM. Compound `Cc1cccc(NC(=O)c2ccc(Oc3ccccc3)cc2)n1` has an AC50 of 6.55 µM. With `COc1cc(NC(=O)CN2C(=O)NC(c3ccccc3)(c3ccccc3)C2=O)cc(OC)c1` the AC50 was 1.17 µM and 1.13 µM. `Cn1cnc(S(=O)(=O)Nc2ccc(OC(F)(F)F)cc2)c1` was tested, and the AC50 was 1.88 µM and 2.29 µM. For `CCc1ccc(S(=O)(=O)Nc2ccc(Br)cn2)cc1`, the AC50 was 2 µM.
